# Data as given in patent US5219741A, “Method of making L-proline using an N-acyl-L-protine acylase” (priority 1990, dated 1993).
# Several values for one entry are separate records, joined by “and”; a condition that tells them apart may be missing. Identical values can stand only once. Entries after “also recorded” stand apart in the source; their conditions may differ. Counter-ions that a name gives are not always drawn. Like-named read-outs stand apart in the source and are kept apart here. Where a SMILES comes first, the peptide text is derived from it.
# Legend:
# [1] = test system: N-acyl-L-proline acylase; experiment: Substrate specificity: hydrolysis of N-acyl amino acids and proline derivatives; assay type: biochemical, Comamonas testosteroni DSM 5416; details: for Rel. activity (%) / Relative Activity (%): N-acetyl-L-proline = 100%; for Relative Activity (%): proline derivatives
# Procedure: The activity of acylase was determined with various N-acetyl-L-amino acids and N-chloroacetyl-L-amino acids in a reaction batch with the following composition:
# The reaction temperature was 30° C. and the incubation time 15 minutes to 24 hours. 0.2 ml samples of the reaction batch in each instance were mixed at different times with 0.2 ml 10% (w/v) trichloroacetic acid and the denatured protein centrifuged off for 10 minutes at 11,000 rpms in a table centrifuge. The supernatant was diluted with a 0.1M Na citrate buffer pH 2.2 with 25% (v/v) 2.2-thiodiethanol and 0.1% (v/v) phenol 1:5 and 1:50 respectively. The amino acids released were quantitatively detected by an amino-acid analyzer LC 5001 of the firm Biotronic, Maintal, Federal Republic of Germany. In Table 16, the substrates marked with * and the corresponding products were quantified by means of HPLC.
# The activity of the acylase was determined with various proline derivatives as under a).
# [2] = test system: N-acyl-L-proline acylase; assay type: biochemical, Comamonas testosteroni DSM 5416
# Procedure: The enzymatic reaction was interrupted by pipetting 50 μl of the enzyme sample into 1.25 ml 100% acetic acid. Subsequently, 0.45 ml 0.1M tris-HCl buffer pH 7.0 and 1.25 ml ninhydrin reagent (3 g ninhydrin dissolved by heating in a mixture of 60 ml 100% acetic acid and 40 ml 6M phosphoric acid) were added. The ninhydrin reagent was freshly prepared daily. The test tubes were loosely closed with screw-on caps, incubated 30 minutes at 100° C. and subsequently cooled down in an ice bath.
# The L-proline, liberated by the enzymatic hydrolysis, forms a red dye with ninhydrin at 100° C. The absorption of the red dye was measured in a spectrophotometer at 480 nm relative to a control batch without crude extract (=substrate blank). The concentration of the L-proline produced was determined using a straight calibration line with L-proline in a range of 5 to 100 nmoles per 50 μl specimen. The enzyme activity was indicated in international units; thus, one unit (U) corresponded to an amount of 1 μmole L-proline produced per minute.
# The influence of various chemical agents as well as metal cations and anions on the reaction speed of the hydrolytic splitting of N-acetyl-L-proline was determined at 30° C. in a reaction batch with the following composition: […]
# The enzyme was pre-incubated for 10 minutes at 30° C. with the compound before the addition of substrate to start the reaction.
# The enzyme was pre-incubated for 10 minutes at 30° C. with the agent before the substrate was added to start the reaction.
# The enzyme was pre-incubated 10 minutes at 30° C. with the agent before the substrate was added to start the reaction. The concentration of the anions was 10 mM in each instance.
# [3] = 20 mM substrate 1.0 ml in 2.0 ml batch, 30° C., pH 7.0, amino-acid analyzer
# [4] = substrate concentration 50 mM, quantified by HPLC
# [5] = chemical agent 1 mM, 10 min pre-incubation at 30° C., no agent = 100
# [6] = chemical agent 10 mM, 10 min pre-incubation at 30° C., no agent = 100
smiles,measurement,setting,value
"CC(=O)NC(CO)C(=O)O (racemic) [Ac--D,L--Ser]",Rel. activity (%),[1]; [3],0.2%
"O=C(O)C1CCCCN1C(=O)CCl (racemic) [ClAc--D,L-pipecolic acid, N-chloroacetyl-D,L-pipecolic acid]",Hydrolysis by the acylase (in words),[1],reacted at a distinctly lower speed
same,Rel. activity (%),[1]; [4],16%
"O=C(O)C1SCCN1C(=O)CCl (racemic) [ClAc--D,L-thiazolidine-2-carboxylic acid, N-chloroacetyl-DL-thiazolidine-2-carboxylic acid]",Hydrolysis by the acylase (in words),[1],hydrolyzed especially well
same,Rel. activity (%),[1]; [4],202%
O[C@H](CS)[C@H](O)CS (racemic) [Dithiothreitol],Activity (%),[2]; [5],129%
same,Activity (%),[2]; [6],48%
"c1ccc(-c2ccccn2)nc1 [2,2-bipyridine]",Activity (%),[2]; [5],102%
same,Activity (%),[2]; [6],66%
OCCS [2-mercaptoethanol],Activity (%),"[2]; chemical agent 14 mM, 10 min pre-incubation at 30° C.",14%
same,Influence on the acylase activity (in words),[2]; native enzyme,inhibiting action; also recorded: significantly inhibit
O=C([O-])c1cc[c]([Hg][Cl])cc1 [4-chloromercuribenzoate],Activity (%),[2]; [5],85%
same,Activity (%),[2]; [6],48%
same,Influence on the acylase activity (in words),[2]; native enzyme,inhibiting action; also recorded: significantly inhibit
O=C([O-])c1cc[c]([Hg][OH])cc1 [4-hydroxymercuribenzoate],Activity (%),[2]; [5],88%
same,Activity (%),[2]; [6],41%
same,Influence on the acylase activity (in words),[2]; native enzyme,inhibiting action; also recorded: significantly inhibit
CC(=O)N[C@@H](C)C(=O)N1CCC[C@H]1C(=O)O [Ac--L--Ala--L--Pro--OH] (Ac-Ala-Pro-OH),Relative Activity (%),"[1]; 30° C., pH 7.0",0%
CC(=O)N[C@@H](CS)C(=O)O [Ac--L--Cys],Rel. activity (%),[1]; [3],0%
CC(=O)N[C@@H](Cc1ccc(O)cc1)C(=O)O [Ac--L--Tyr],Rel. activity (%),[1]; [3],0%
CC(=O)N[C@H](C(=O)O)C(C)C [Ac--L--Val],Rel. activity (%),[1]; [3],0.2%
CC(=O)N1CC[C@H]1C(=O)O [Ac--L-azetidine-2-carboxylic acid],Rel. activity (%),[1]; quantified by HPLC,0%
CC(C)(C)OC(=O)N1CCC[C@H]1C(=O)O [Boc--L--Pro--OH],Relative Activity (%),"[1]; 30° C., pH 7.0",0%
"O=C(CCl)NC1(C(=O)O)CCCCC1 [ClAc--D,L-1-aminocyclohexanoic acid]",Rel. activity (%),[1]; [3],0%
CC[C@H](C)[C@H](NC(=O)CCl)C(=O)O [ClAc--L--Ile],Rel. activity (%),[1]; [3],0.5%
O=C(O)[C@@H]1Cc2ccccc2N1C(=O)CCl [ClAc--L-indolin-2-carboxylic acid],Rel. activity (%),[1]; quantified by HPLC,0%
O=C(O)CN(CCN(CC(=O)O)CC(=O)O)CC(=O)O [EDTA],Activity (%),[2],101% and 99%
N[C@@H](CCC(=O)N[C@@H](CS)C(=O)NCC(=O)O)C(=O)O [Glutathione],Activity (%),[2],116% and 135%
C[C@H](N)C(=O)N1CCC[C@H]1C(=O)O [H--L Ala--L--Pro--OH] (H-Ala-Pro-OH),Relative Activity (%),"[1]; 30° C., pH 7.0",0%
NC(=O)CI [Iodoacetamide],Activity (%),[2]; [5],104%
same,Activity (%),[2]; [6],101%
O=C(O)CI [Iodoacetate],Activity (%),[2],97% and 77%
O=[N+]([O-])[O-].[K+] [KNO3],Activity (%),"[2]; anion 10 mM, no agent = 100",96%
O=C(O)O [Na2 CO3],Activity (%),[2],75%
same,Influence on the acylase activity (in words),[2],slightly inhibited
O=S(=O)([O-])[O-].[Na+].[Na+] [Na2 SO4],Activity (%),"[2]; anion 10 mM, no agent = 100",96%
O=C(O)CC(O)(CC(=O)O)C(=O)O [Na citrate],Activity (%),[2]; [5],102%
same,Activity (%),[2]; [6],102%
[Cl-].[Na+] [NaCl],Activity (%),[2],99%
O=P([O-])(O)O.[Na+] [NaH2 PO4],Inhibiting mechanism,[2],non-competitive
same,Activity (%),"[2]; anion 10 mM, no agent = 100",6%
same,Influence on the acylase activity (in words),"[2]; native enzyme, listed as PO4^3-",inhibiting action
same,Influence on the acylase activity (in words),"[2]; native enzyme, listed as Phosphate",inhibited
same,Influence on the acylase activity (in words),"[2]; native enzyme, listed as phosphate",sharply inhibited
O=N[O-].[Na+] [NaNO2],Activity (%),[2],71%
same,Influence on the acylase activity (in words),[2],slightly inhibited
O=S(=O)(F)Cc1ccccc1 [PMSF],Activity (%),"[2]; chemical agent 0.1 mM, 10 min pre-incubation at 30° C.",104%
same,Activity (%),[2]; [5],130%
NNC(N)=O [Semicarbazide],Activity (%),[2]; [5],109%
same,Activity (%),[2]; [6],95%
